Results from the SangsterLogP compilation.

Experiment: method code SF, from Hansch, C. & Leo, A. (1987). Log P database [Dataset]. Pomona College Medicinal Chemistry Project.

SMILES	logP	also measured
c1ccc(COc2ccccc2)cc1	3.79	
COC(=O)C(C)Oc1ccc(Oc2ccc(Cl)cc2Cl)cc1 (stereo unspecified)	4.8	
CCC[C@H]1CN[C@H](C(=O)N[C@@H]([C@H]2O[C@H](SC)[C@H](O)[C@@H](O)[C@H]2O)[C@H](C)Cl)C1		logD (pH 12.3): 1.69
CN(C)c1cccc2ccccc12	3.46	
Nc1nncs1		logD (pH 7.4): -0.57
CCCCS	2.28	
Nc1ncnc2nc(-c3cccc([N+](=O)[O-])c3)[nH]c12		logD (pH 7.3): 1.93
CC(C)n1cc(C(C)(C)C)nc1SSc1nc(C(C)(C)C)cn1C(C)C	4.1	
CCCCCCCOC(=O)c1ccc(O)cc1	4.83	
CC(=O)Nc1ccc(F)cc1	1.43	
O=[N+]([O-])c1ccc2[nH]ccc2c1	2.53	
Oc1c(Br)cc(Br)c(O)c1Br		logD (pH 1.4): 4.37
CN(C)CCN(C)C	0.3	
CCC(C)C(=O)Nc1ccccc1 (stereo unspecified)	2.56	
CCNC(=O)CBr	0.34	
CN(C(=O)CCOS(C)(=O)=O)c1ccc(S(=O)(=O)N(C)C)cc1	-0.68	
O=C(O)c1nccc2ccccc12		logD (pH 2.0): -0.53
CC(=O)OCC1=C(C(=O)O)N2C(=O)C(NC(=O)Cc3ccccc3)C2SC1 (stereo unspecified)		logD (pH 3.0): 0.2
CCOc1cn[nH]c1	0.8	
O=S1(=O)NC(CCl)=Nc2cc(Cl)ccc21	1.68	
CCSC(=Cc1ccccc1)C(=O)NC(C)CC (stereo unspecified)	3.4	
O=[N+]([O-])c1ccc(OCCn2ccnn2)cc1	1.19	
CC1(C)OC2CC3C4CC(F)C5=CC(=O)C(Cl)=CC5(C)C4(F)C(O)CC3(C)C2(C(=O)CO)O1 (stereo unspecified)	2.99	
Cc1ccc2c(ccc[n+]2[O-])c1	0.95	
CCOP(=S)(OCC)Oc1ccc(SC)c(Cl)c1	5.06	
CC(=C(C#N)C#N)c1ccccc1	2.1	

SMILES	logP	also measured
CNN=CCCc1ccccc1		logD (pH 7.4): 1
NS(=O)(=O)c1ccc(C(=O)O)cc1		logD (pH 1.0): 0.5
CC(=O)NN=CCCc1ccccc1		logD (pH 7.4): 1.8
O=C(O)C(CO)c1ccccc1 (stereo unspecified)		logD (pH 1.0): 0.77
CCCCC1OC(=O)c2cc(Br)ccc21 (stereo unspecified)	4.24	
CN(C)c1ncnc2sccc12	1.82	
CSc1cccc(/N=N/N(C)C)c1	2.98	
Cc1nnc(SCc2ccccc2)s1	2.35	
C=CCN(C)/N=N/c1ccc(C(N)=O)cc1	2.09	
C1COCCO1	-0.27	
c1cncc([C@@H]2CCCCN2)c1		logD (pH 11.0): 0.97
COc1cccc(C(C)=O)c1		logD (pH 7.0): 1.84
CC(=O)Nc1ccc(C(C)=O)cc1	1.24	
O=C(Nc1ccccc1)NC(CO)(CO)CO	0.43	
CCOC(=O)C(=Cc1ccc(Cl)cc1Cl)C(=O)OCC	3.49	
CN(C)C(=S)Nc1ccccc1	1.04	
O=CNc1ccc(F)cc1		logD (pH 7.0): 1.27
NC(=O)Nc1cccc(NC(N)=O)c1	0.58	
C(=N\c1ccccc1)/c1ccccc1	2.82	
Cc1ccccc1C#N	2.21	
OC[C@@H]1C[C@H]1c1ccccc1	1.95	
CN(CCO)C1=C(N2CC2)C(=O)C(N(C)CCO)=C(N2CC2)C1=O	-0.37	
Clc1ccc2[nH]c(CCCCCCc3nc4cc(Cl)ccc4[nH]3)nc2c1	1.38	
CCC[C@@H]1C[C@@H](C(=O)N[C@@H]([C@H]2O[C@H](SC)[C@H](O)[C@@H](O)[C@H]2O)[C@@H](C)O)N(CC)C1		logD (pH 12.0): 1.02
CN(C)C(=O)/C=C/c1ccccc1	1.73	
CCCCN(CCCC)CC(O)c1ccccc1 (stereo unspecified)		logD (pH 13.0): 3.16

SMILES	logP	also measured
Nc1ccc([N+](=O)[O-])cc1N	0.88	
COc1cccc(Cc2cnc(N)nc2N)c1OC		logD (pH 13.0): 1.62
Nc1ncco1	-0.18	
N#Cc1cccc(OC(=O)CNC(=O)c2ccccc2)c1	2.11	
C#CCCC(=O)N(C)c1ccc(S(=O)(=O)N(C)C)cc1	0.88	
O=c1[nH]cc(Cl)c(=O)[nH]1	-0.35	
CCOC(=O)C(F)(F)C(F)(F)F	2.12	
CCOC(=O)NC	0.34	
CCC(C)C(=O)Nc1ccc(Cl)c(Cl)c1 (stereo unspecified)	4.11	
CO[C@H]1[C@@H](O)[C@@H](C)O[C@H](O[C@H]2[C@H](Oc3cccc4c(O)c5c(=O)oc6ccc(C)c7c(=O)oc(c34)c5c67)O[C@H](C)[C@H](O)[C@@H]2O)[C@@H]1O		logD (pH 7.0): 1.8
O=Cc1cccc(C(F)(F)F)c1	2.47	
COc1ccc(CN(CCN(C)C)c2ccccn2)cc1	2.85	
CCC(C)NP(=O)(OC)Oc1cc(Cl)c(Cl)cc1Cl (stereo unspecified)	3.99	
OCC(Br)(Br)Br	2.1	
COc1cccc(S(C)(=O)=O)c1		logD (pH 7.0): 0.86
O=C(O)c1ccoc1	1.03	
Cc1c(N2CCOCC2)c(=O)n(C)c(=O)n1C1CCCCC1		logD (pH 7.4): 2.39
Ic1cn[nH]c1	1.7	
NNC(=O)c1ccncc1	-0.5	
O=S1(=O)NC(C(F)(F)F)=Nc2cc(Cl)ccc21	1.65	
CNC(=O)Oc1cc(Cl)ccc1Cl	2.44	
COc1ccccc1OC(C)=O	1.38	
CCCNCCC	1.73	
CC[C@H]1OC(=O)[C@H](C)[C@@H](OC2CC(C)(OC)C(O)C(C)O2)C(C)[C@@H](OC2OC(C)CC(N(C)C)C2O)[C@](C)(O)C[C@@H](C)C(=O)[C@H](C)[C@@H](O)[C@H]1C (stereo partly specified)	3.12	
CC(C)c1ccc(C(N)=O)cc1	2.14	
c1ccc(OCCOc2ccccc2)cc1	3.81	

SMILES	logP	also measured
CC(=O)Nc1ccccc1C#N	0.57	
COc1cccc(OC)c1	2.21	
O=C(N[C@H](CO)[C@H](O)c1ccc(-c2ccccn2)cc1)C(F)(F)F	1.31	
COc1cc(C=O)ccc1OCCO	0.58	
COc1cc(C=NOC(=O)c2ccccc2OC)ccc1OCCO	2.84	
CNC(=S)NC12CC3CC(CC(C3)C1)C2	2.67	
Cc1ccc(C(O)c2ccccc2)cc1 (stereo unspecified)	3.13	
Cn1c(=O)c(=O)n(C)c2ccccc21	0.08	
NC(=O)CF	-1.05	
CCOC(=O)CNCCCCCSc1c2[nH]cnc2nc[n+]1[O-]	0.87	
CO[C@H]1C=CO[C@@]2(C)Oc3c(C)c(O)c4c(O)c(c(CN5CCN(C)CC5)c(O)c4c3C2=O)NC(=O)/C(C)=C\C=C/[C@@H](C)[C@@H](O)[C@@H](C)[C@H](O)[C@H](C)[C@@H](OC(C)=O)[C@H]1C	1.76	
NN=C(c1ccccc1)c1ccccc1	2.79	
CC(=O)C(=Cc1ccccc1C)C(C)=O	1.98	
CC1=Nc2cc(C)ccc2S(=O)(=O)N1	0.74	
COC(=O)CCC(=O)N(C)c1ccc(S(=O)(=O)N(C)C)cc1	0.43	
CC(F)F	0.75	
CS(=O)(=O)NN=Cc1ccccc1	1.2	
Nc1c(S(=O)(=O)O)ccc2ccccc12	-0.97	
CCC(C)NC(=O)/C(F)=C\c1ccccc1 (stereo unspecified)	3.1	
O=C(O)c1ccc(C(F)(F)F)cc1	3.1	
O=C(O)COc1ccc(F)c(I)c1	2.42	
CN(C)c1ccc(N=C2C=CC(=O)C=C2)cc1	2.02	
c1ccc2c(c1)nnc1ccccc12	2.71	
C1=Cc2ccccc2C1	2.92	
C=CCO	0.17	
O=C(Cc1ccccc1)Nc1ccc(Cl)c(Cl)c1	4.47	

SMILES	logP	also measured
CC(=O)Nc1cn[nH]c1	-0.38	
O=[N+]([O-])C=Cc1ccoc1	1.41	
C=CC(=O)c1ccccc1	1.88	
CCCCNC	1.33	
O=C(Nc1ccccc1)c1ccc(C(=O)Nc2ccccc2)cc1	3.72	
COc1ccccc1OC	1.79	
c1ccc2cnncc2c1	0.57	
Sc1ncccn1	-0.97	
CCOC(=O)N=[N+]([O-])c1ccccc1	2.53	
COC(=O)c1c(C)n(C)c2c1c1c(O)c3c(O)c(C)c4c(c32)C(=O)C(C)(OC=CC(OC)C(C)C(OC(C)=O)C(C)C(O)C(C)C(O)C(C)C=CC=C(C)C(=O)N1)O4 (stereo unspecified)	1.46	
COc1ccc2c(c1)N=C(C)NS2(=O)=O	0.56	
CCCC1CNC(C(=O)NC(C(C)Br)C2OC(SC)C(O)C(O)C2O)C1 (stereo unspecified)		logD (pH 12.3): 1.77
OC(c1nc2ccccc2[nH]1)C(O)c1nc2ccccc2[nH]1 (stereo unspecified)	1.14	
COc1ccccc1C	2.74	
CCCOC=O	0.83	
O/N=C/CCc1ccccc1		logD (pH 7.4): 1.56
CCCCCCCCOC(=O)c1cccc(C(=O)OCCCCCCCC)c1	5.55	
O=C1CCC2CCCCC2C1 (stereo unspecified)	1.97	
Nc1c2ccccc2nc2ccccc12	2.74	
CC(=O)Nc1cccc(OC(=O)CNC(=O)c2ccccc2)c1	1.7	
NC(=O)C(F)(F)F	0.12	
CN(Cc1ccccc1)c1ccccc1		logD (pH 13.0): 4.22
O=C(CNC(=O)c1ccccc1)Oc1cccc(C(F)(F)F)c1	3.3	
CN(C(=O)CCBr)c1ccc(S(=O)(=O)N(C)C)cc1	1.13	
CC(=O)OC1CCCC(NC(=O)N(CCF)N=O)C1 (stereo unspecified)	1.33	
CC(=O)C(=Cc1ccccc1)C(C)=O	1.59	

SMILES	logP	also measured
NC(=O)N/N=C/c1ccccc1	1.27	
Cc1cccc(Cl)c1	3.28	
NCc1cccnc1		logD (pH 11.0): -0.1
Clc1ccc2[nH]c(CCCCc3nc4cc(Cl)ccc4[nH]3)nc2c1	1.85	
O=c1[nH]c2ccccc2o1	1.16	
CCC1OC(=O)C(C)C(OC2CC(C)(OC)C(O)C(C)O2)C(C)C(OC2OC(C)CC(N(C)C)C2O)C2(C)CC(C)C3(OC(=O)OC(C3C)C1(C)O)O2 (stereo unspecified)	3.11	
CCOC(CP(=O)(OCC)OCC)OCC	0.69	
O=c1cc2ccccc2n[nH]1	0.68	
O=C(CCCN1CCC(n2c(=O)[nH]c3ccccc32)CC1)c1ccc(F)cc1		logD (pH 7.4): 3.91
Nc1cccc2nc3ccccc3cc12	2.47	
NS(=O)(=O)NCCc1ccccc1	0.81	
CC1CCCCC1(C)NC(=O)N(CCCl)N=O (stereo unspecified)	2.57	
O=C(O)COc1ccc(Cl)c(C(=O)O)c1	1.07	
C/C=C/c1ccccc1	3.35	
O=C(O)COc1ccc(Cl)c([N+](=O)[O-])c1	1.85	
NC(=O)c1cccc(C(N)=O)c1	-0.21	
CNCc1cccnc1		logD (pH 11.0): 0.39
C1OC1CN1CCN(CC2CO2)CC1 (stereo unspecified)	-0.84	
CCOP(=S)(OCC)SCS(=O)C(C)(C)C (stereo unspecified)	2.21	
CC(Cl)(Cl)Cl	2.49	
CCOCCCl	0.98	
